# Test results as given in BindingDB's records for doi:10.1021/jm970857f (Eli Lilly, 1998).
# Structures can show the parent of a compound that is named as a salt.
# Target: T1, Alpha-1A adrenergic receptor (Rattus norvegicus, UniProt P43140)
# T1 sequence (P43140 whole entry): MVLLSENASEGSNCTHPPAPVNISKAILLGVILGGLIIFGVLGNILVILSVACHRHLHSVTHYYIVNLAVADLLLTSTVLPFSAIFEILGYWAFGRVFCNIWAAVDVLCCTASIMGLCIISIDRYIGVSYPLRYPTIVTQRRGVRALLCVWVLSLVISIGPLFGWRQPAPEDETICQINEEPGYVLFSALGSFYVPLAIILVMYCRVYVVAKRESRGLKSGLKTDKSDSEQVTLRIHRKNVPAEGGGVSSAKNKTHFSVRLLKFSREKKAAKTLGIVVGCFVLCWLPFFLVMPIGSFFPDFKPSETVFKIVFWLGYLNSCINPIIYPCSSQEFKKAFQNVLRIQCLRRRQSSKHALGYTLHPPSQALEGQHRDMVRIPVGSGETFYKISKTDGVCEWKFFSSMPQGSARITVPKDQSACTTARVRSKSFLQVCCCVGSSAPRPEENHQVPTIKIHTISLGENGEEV
row,Structure (SMILES),Ki
1,CC(C)n1nc(C(=O)NC2CCN(CCNS(C)(=O)=O)CC2)c2ccccc21 [N-(1-(2-((N-Methylsulfonyl)amino)ethyl)piperidin-4-yl)-1-isopropylindazole-3-carboxamide Maleate],> 10 µM
2,CC(C)n1nc(C(=O)NC2CCN(Cc3ccccc3)CC2)c2ccccc21 [N-(1-Benzylpiperidin-4-yl)-1-isopropylindazole-3-carboxamide Hydrochloride],> 10 µM
3,CC(C)n1nc(C(=O)NCCN2CCC(NC(=O)OCc3ccccc3)CC2)c2ccccc21 [N-(2-(4-((Benzyloxycarbonyl)amino)-1-piperidinyl)-ethyl)-1-isopropylindazole-3-carboxamide Oxalate],> 10 µM
